From article PMC11642016 (International Journal of Molecular Sciences, 2024)
Where “and” joins values, the source holds several entries; their conditions need not be identical. Identical values can stand only once. Like-named read-outs stand apart in the source and are kept apart here.

Legend:
in vitro [1] = details: human, HEK293T WT Cell viability (% of controll), dose–response, individual replicates
Method: (§1) Primary fibroblast cultures were prepared from human skin biopsies and maintained in DMEM supplemented with 10% FBS, 1% penicillin-streptomycin, and 1% MEM Non-Essential Amino Acids Solution (Thermo Fisher Scientific). […] All cell lines were cultured in a humidified atmosphere at 37 °C and 5% CO2, passaged twice a week, and the experiments were performed on cells between passage 5 and 15. The cell lines were routinely screened for the absence of mycoplasma infection (DAPI staining).
(§2) The effects of the synthesized compounds on cell viability were measured using the CellTiter-Glo® luminescent cell viability assay (Promega, Madison, WI, USA), according to the manufacturer’s instructions. Briefly, cells were seeded onto a flat-bottomed, white 96-well plate (BRANDplates, cat. no.: 781965)), with the following densities: PANC-1: 750 cells/well, Fadu: 2000 cells/well, primary fibroblasts: 2000 cells/well, HEK293T WT: 1000 cells/well, HEK293T CLPP^−/−: 2500 cells/well. After seeding, cells were incubated for a further 48 h before treatment. Cells were treated with the compounds for 72 h. Three concentrations (25.0 µM; 8.3 µM; 2.8 µM) were applied during the initial cell viability screening, while for the determination of dose–response curves, 1.5-fold serially diluted compound concentrations were applied (range: 26 µM–0.7 µM). After treatment, the luminescence signal was recorded using a microplate reader (BioTek Synergy 2 Multi-Mode Reader, BioTek, Winooski, VT, USA).
(§3) Data analysis was performed using GraphPad Prism 9.5.0 software (GraphPad Software, San Diego, CA, USA). […] The dose–response curves were generated by four-parameter nonlinear regression, and the IC50 values were determined as the means ± SEM of the best-fit values of 3 independent measurements. The R^2 values were consistently above 0.93, indicating a strong fit of the model to the experimental data (Supplementary S.89). […] Dunnett’s post hoc test was applied to adjust for multiple comparisons, minimizing the likelihood of false positive results. Assumptions for ANOVA, including normality (assessed via QQ plots) and homogeneity of variance (tested using the Brown–Forsythe test), were verified. The following significance levels were applied: * p < 0.05, ** p < 0.01, *** p < 0.001, **** p < 0.0001. […] The tumor selectivity of the compounds was quantitatively characterized by the selectivity index (SI). This parameter was calculated as the ratio of the average best-fit IC50 value for primary fibroblasts and the best-fit IC50 value for the corresponding tumor cells (PANC-1 or Fadu).

in vitro [2] = details: human, fibroblast viability in the tested concentration range, dose–response range 26–0.7 µM
Method: as §1, §2, §3

Fadu cells = test: CellTiter-Glo luminescent cell viability assay, Fadu; details: for viability at 2.8 µM: read-out: Cell Viability (% of Control) 2.8 µM, Fadu; for viability at 2.8 µM / viability at 8.3 µM / viability at 25 µM: mean ± SD, n = 2; for viability at 8.3 µM: read-out: Cell Viability (% of Control) 8.3 µM, Fadu; for viability at 25 µM: read-out: Cell Viability (% of Control) 25 µM, Fadu
PANC-1 cells = test: CellTiter-Glo luminescent cell viability assay, PANC-1; details: for viability at 2.8 µM: read-out: Cell Viability (% of Control) 2.8 µM, PANC-1; for viability at 2.8 µM / viability at 8.3 µM / viability at 25 µM: mean ± SD, n = 2; for viability at 8.3 µM: read-out: Cell Viability (% of Control) 8.3 µM, PANC-1; for viability at 25 µM: read-out: Cell Viability (% of Control) 25 µM, PANC-1
HEK293T WT cells = test: CellTiter-Glo cell viability assay, HEK293T WT; details: for HEK293T WT Cell viability (% of controll): dose–response, individual replicates
Method: as §1, §2, §3

[3] = 0.7 μM, 72 h, dose–response, individual replicates
[4] = 1 μM, 72 h, dose–response, individual replicates
[5] = 1.5 μM, 72 h, dose–response, individual replicates
[6] = 2.3 μM, 72 h, dose–response, individual replicates
[7] = 3.4 μM, 72 h, dose–response, individual replicates
[8] = 5.1 μM, 72 h, dose–response, individual replicates
[9] = 7.7 μM, 72 h, dose–response, individual replicates
[10] = 17.3 μM, 72 h, dose–response, individual replicates
[11] = 26 μM, 72 h, dose–response, individual replicates
[12] = Homo sapiens, FaDu, 72 h, 72 h, first-set screening
[13] = Homo sapiens, FaDu, 72 h, 72 h, second-set screening
[14] = Homo sapiens, PANC-1, 72 h, 72 h, first-set screening
[15] = Homo sapiens, PANC-1, 72 h, 72 h, second-set screening

For `Cc1ccccc1CN1C(=O)C2=C(CCN(Cc3ccccc3)C2)N2CCN=C12` [ONC201, reference compound], the viability at 72 h, 0.6 µM (in vitro [1]; 0.6 μM) was 60%, the viability at 72 h, 1 µM (in vitro [1]; 1.0 μM) was 30% and the viability at 72 h, 1.6 µM (in vitro [1]; 1.6 μM) was 28%. The viability at 72 h, 2.5 µM (in vitro [1]; 2.5 μM) was 21%, the viability at 72 h, 4 µM (in vitro [1]; 4.0 μM) was 19% and the viability at 72 h, 6.4 µM (in vitro [1]; 6.4 μM) was 18%. It also gave a viability at 72 h, 16.25 µM (in vitro [1]; 16.25 μM) of 15%, a viability at 72 h, 26 µM (in vitro [1]; 26 μM) of 15% and a viability at 72 h (in vitro [2]) greater than 50%. The “Fadu Cell viability (% of controll)” value (Fadu cells; [3]) was 93 % of controll, the “Fadu Cell viability (% of controll)” value (Fadu cells; [4]) was 86 % of controll and 77 % of controll and the “Fadu Cell viability (% of controll)” value (Fadu cells; [5]) was 59 % of controll and 51 % of controll. The “Fadu Cell viability (% of controll)” value (Fadu cells; [6]) was 55 % of controll and 30 % of controll, the “Fadu Cell viability (% of controll)” value (Fadu cells; [7]) was 26 % of controll and the “Fadu Cell viability (% of controll)” value (Fadu cells; [8]) was 26 % of controll. The “Fadu Cell viability (% of controll)” value (Fadu cells; [9]) was 28 % of controll and 27 % of controll, the “Fadu Cell viability (% of controll)” value (Fadu cells; [10]) was 23 % of controll and 24 % of controll and the “Fadu Cell viability (% of controll)” value (Fadu cells; [11]) was 22 % of controll and 24 % of controll. It also gave a viability at 2.8 µM (Fadu cells; [12]) of 31 ± 1%, a viability at 2.8 µM (Fadu cells; [13]) of 38 ± 5% and a viability at 8.3 µM (Fadu cells; [12]) of 29 ± 1%. It also gave a viability at 8.3 µM (Fadu cells; [13]) of 31 ± 2%, a viability at 25 µM (Fadu cells; [12]) of 27 ± 1% and a viability at 25 µM (Fadu cells; [13]) of 25 ± 3%. The viability at 0.7 µM (Fadu cells; Homo sapiens, FaDu, 72 h, read-out: Fadu Cell viability (% of controll), 0.7 μM, 72 h, dose–response, individual replicates) was 94%, the viability at 1 µM (Fadu cells; Homo sapiens, FaDu, 72 h, read-out: Fadu Cell viability (% of controll), 1 μM, 72 h, dose–response, individual replicates) was 85% and the viability at 1.5 µM (Fadu cells; Homo sapiens, FaDu, 72 h, read-out: Fadu Cell viability (% of controll), 1.5 μM, 72 h, dose–response, individual replicates) was 66%. The viability at 3.4 µM (Fadu cells; Homo sapiens, FaDu, 72 h, read-out: Fadu Cell viability (% of controll), 3.4 μM, 72 h, dose–response, individual replicates) was 40%, the viability at 5.1 µM (Fadu cells; Homo sapiens, FaDu, 72 h, read-out: Fadu Cell viability (% of controll), 5.1 μM, 72 h, dose–response, individual replicates) was 39% and the viability at 7.7 µM (Fadu cells; Homo sapiens, FaDu, 72 h, read-out: Fadu Cell viability (% of controll), 7.7 μM, 72 h, dose–response, individual replicates) was 38%. For the same molecule, the viability at 17.3 µM (Fadu cells; Homo sapiens, FaDu, 72 h, read-out: Fadu Cell viability (% of controll), 17.3 μM, 72 h, dose–response, individual replicates) was 33%, the viability at 26 µM (Fadu cells; Homo sapiens, FaDu, 72 h, read-out: Fadu Cell viability (% of controll), 26 μM, 72 h, dose–response, individual replicates) was 31% and the IC50 (Fadu cells; Homo sapiens, FaDu, 72 h, read-out: IC50 Value ± SEM Fadu, 72 h treatment, best-fit values, n = 3) was 1.3 ± 0.15 µM. For the same molecule, the IC50 (Fadu cells; Homo sapiens, FaDu, read-out: Fadu IC50 values, Mean, mean of independently fitted replicate IC50 values (Supplement S.6)) was 1.34 µM, the IC50 (Fadu cells; Homo sapiens, FaDu, read-out: Fadu IC50 values, individual replicates n1-n3, IC50 independently determined for each replicate measurement (Supplement S.6)) was 1.35 µM and the IC50 (Fadu cells; read-out: Fadu IC50 values, individual replicates n1-n3, IC50 independently determined for each replicate measurement (Supplement S.6)) was 1.41 µM and 1.26 µM. The “PANC-1 Cell viability (% of controll)” value (PANC-1 cells; [3]) was 92 % of controll and 97 % of controll, the “PANC-1 Cell viability (% of controll)” value (PANC-1 cells; [4]) was 102 % of controll and 101 % of controll and the “PANC-1 Cell viability (% of controll)” value (PANC-1 cells; [5]) was 86 % of controll and 101 % of controll. The “PANC-1 Cell viability (% of controll)” value (PANC-1 cells; [6]) was 78 % of controll and 84 % of controll, the “PANC-1 Cell viability (% of controll)” value (PANC-1 cells; [7]) was 57 % of controll and 60 % of controll and the “PANC-1 Cell viability (% of controll)” value (PANC-1 cells; [8]) was 51 % of controll and 54 % of controll. The “PANC-1 Cell viability (% of controll)” value (PANC-1 cells; [9]) was 43 % of controll and 48 % of controll, the “PANC-1 Cell viability (% of controll)” value (PANC-1 cells; [10]) was 37 % of controll and 35 % of controll and the “PANC-1 Cell viability (% of controll)” value (PANC-1 cells; [11]) was 32 % of controll and 29 % of controll. It also gave a viability at 2.8 µM (PANC-1 cells; [14]) of 69 ± 1%, a viability at 2.8 µM (PANC-1 cells; [15]) of 59 ± 9% and a viability at 8.3 µM (PANC-1 cells; [14]) of 58 ± 1%. For the same molecule, the viability at 8.3 µM (PANC-1 cells; [15]) was 35 ± 2%, the viability at 25 µM (PANC-1 cells; [14]) was 53 ± 2% and the viability at 25 µM (PANC-1 cells; [15]) was 22 ± 2%. The IC50 (PANC-1 cells; Homo sapiens, PANC-1, 72 h, read-out: IC50 Value ± SEM PANC-1, 72 h treatment, best-fit values, n = 3) was 3.1 ± 0.26 µM, the viability at 0.7 µM (PANC-1 cells; Homo sapiens, PANC-1, 72 h, read-out: PANC-1 Cell viability (% of controll), 0.7 μM, 72 h, dose–response, individual replicates) was 90% and the viability at 1 µM (PANC-1 cells; Homo sapiens, PANC-1, 72 h, read-out: PANC-1 Cell viability (% of controll), 1 μM, 72 h, dose–response, individual replicates) was 94%. The viability at 1.5 µM (PANC-1 cells; Homo sapiens, PANC-1, 72 h, read-out: PANC-1 Cell viability (% of controll), 1.5 μM, 72 h, dose–response, individual replicates) was 85%, the viability at 2.3 µM (PANC-1 cells; Homo sapiens, PANC-1, 72 h, read-out: PANC-1 Cell viability (% of controll), 2.3 μM, 72 h, dose–response, individual replicates) was 72% and the viability at 3.4 µM (PANC-1 cells; Homo sapiens, PANC-1, 72 h, read-out: PANC-1 Cell viability (% of controll), 3.4 μM, 72 h, dose–response, individual replicates) was 64%. It also gave a viability at 5.1 µM (PANC-1 cells; Homo sapiens, PANC-1, 72 h, read-out: PANC-1 Cell viability (% of controll), 5.1 μM, 72 h, dose–response, individual replicates) of 49%, a viability at 7.7 µM (PANC-1 cells; Homo sapiens, PANC-1, 72 h, read-out: PANC-1 Cell viability (% of controll), 7.7 μM, 72 h, dose–response, individual replicates) of 46% and a viability at 17.3 µM (PANC-1 cells; Homo sapiens, PANC-1, 72 h, read-out: PANC-1 Cell viability (% of controll), 17.3 μM, 72 h, dose–response, individual replicates) of 34%. The viability at 26 µM (PANC-1 cells; Homo sapiens, PANC-1, 72 h, read-out: PANC-1 Cell viability (% of controll), 26 μM, 72 h, dose–response, individual replicates) was 33%, the IC50 (PANC-1 cells; Homo sapiens, PANC-1, read-out: PANC-1 IC50 values, Mean, mean of independently fitted replicate IC50 values (Supplement S.6)) was 3.05 µM and the IC50 (PANC-1 cells; Homo sapiens, PANC-1, read-out: PANC-1 IC50 values, individual replicates n1-n3, IC50 independently determined for each replicate measurement (Supplement S.6)) was 3.22 µM. For the same molecule, the IC50 (PANC-1 cells; read-out: PANC-1 IC50 values, individual replicates n1-n3, IC50 independently determined for each replicate measurement (Supplement S.6)) was 3.14 µM and 2.78 µM, the “HEK293T WT Cell viability (% of controll)” value (HEK293T WT cells; 0.4 μM, 72 h) was 105 % of controll and 96 % of controll and 95 % of controll and the “HEK293T WT Cell viability (% of controll)” value (HEK293T WT cells; 0.6 μM, 72 h) was 70 % of controll and 65 % of controll and 68 % of controll. For the same molecule, the “HEK293T WT Cell viability (% of controll)” value (HEK293T WT cells; 1.0 μM, 72 h) was 32 % of controll and 31 % of controll, the “HEK293T WT Cell viability (% of controll)” value (HEK293T WT cells; 1.6 μM, 72 h) was 25 % of controll and 29 % of controll and the “HEK293T WT Cell viability (% of controll)” value (HEK293T WT cells; 2.5 μM, 72 h) was 19 % of controll and 22 % of controll and 23 % of controll. The “HEK293T WT Cell viability (% of controll)” value (HEK293T WT cells; 4.0 μM, 72 h) was 19 % of controll and 22 % of controll and 20 % of controll, the “HEK293T WT Cell viability (% of controll)” value (HEK293T WT cells; 6.4 μM, 72 h) was 19 % of controll and 22 % of controll and 20 % of controll and the “HEK293T WT Cell viability (% of controll)” value (HEK293T WT cells; 16.25 μM, 72 h) was 18 % of controll and 19 % of controll. The “HEK293T WT Cell viability (% of controll)” value (HEK293T WT cells; 26 μM, 72 h) was 15 % of controll and 16 % of controll and 18 % of controll, the IC50 (HEK293T WT cells; Homo sapiens, HEK-293T, 72 h, read-out: IC50 (µM) HEK293T WT, 72 h treatment, ± SEM, best-fit values, n = 4) was 0.6 ± 0.03 µM and the IC50 (HEK293T WT cells; Homo sapiens, HEK-293T, read-out: HEK293T WT IC50 values, Mean, mean of independently fitted replicate IC50 values (Supplement S.6)) was 0.56 µM. For the same molecule, the IC50 (HEK293T WT cells; Homo sapiens, HEK-293T, read-out: HEK293T WT IC50 values, individual replicates n1-n4, IC50 independently determined for each replicate measurement (Supplement S.6)) was 0.394 µM and the IC50 (HEK293T WT cells; read-out: HEK293T WT IC50 values, individual replicates n1-n4, IC50 independently determined for each replicate measurement (Supplement S.6)) was 0.626 µM and 0.558 µM and 0.643 µM.
